Patent publication US20260207563A1, “UREA COMPOUNDS AS ACTIVATORS OF POTASSIUM CHANNELS KV7.2/7.3 USEFUL IN THE TREATMENT OF CNS AND PNS DISORDERS” (ANGELINI PHARMA S.P.A., priority 2022, published 2026)
pEC50: −log10 of the molar value.

Columns and labels:
Format in all cases: cell-based
[1] = target: T1, heteromeric KV7.2/KV7.3 channels (KCNQ2, KCNQ3) (Homo sapiens, UniProt O43525+O43526); experiment: Automated patch-clamp (Sophion Qube 384) potency assay against KV7.2/KV7.3 channels; conditions: CHO-K1/Kv7.2/Kv7.3 cells; for pEC50: EC50 from concentration-response of shift in Vhalf, 10 concentrations up to 30 μM, read-out: Kv7.2/7.3 EC50; for Kv7.2/7.3 ΔV1/2: maximal shift in the Vhalf from the top of the curve
T1 construct: expressed in transfected cells; host or cells: CHO-K1
Text: Assessment of In Vitro Potency Against KV7.2/KV7.3 Channels
An automated patch-clamp assay on the Sophion Qube 384 was developed for potency testing to identify small molecule activators of heteromeric KV7.2/KV7.3 channels (KCNQ2, Uniprot ID 043526; KCNQ3, Uniprot 043525).
The cell line used was a stably transfected CHO-K1 cell line with constitutive KV7.2/KV7.3 expression.
CHO-K1/Kv7.2/Kv7.3 cells were maintained in the following culture media: • DMEM/F-12 with GlutaMAX™ (Gibco 31331-028), • 10% Fetal clone 2 serum (Perbio Science SH30066.03), • 1 mg/ml Geneticin™ selective antibiotic (G418, Invitrogen 1013027), and • 5 μg/ml BlasticidinS HCl (Invivogen Ant-bl-5).
On the day of the experiment, cells were resuspended in serum free media, counted and diluted to a final concentration of 3.5×10^6 cells per ml of media.
Cells were then placed onto the Sophion Qube 384 and rested for a minimum of 1 hour.
The following solutions were used for recording: • extracellular solution (in mM): 145 NaCl, 4 KCl, 1 MgCl2, 2 CaCl2), 10 HEPES, 10 glucose, pH 7.4, 315-320 mOsm. • intracellular solution (in mM): 120 KCl, 5.74 CaCl2), 1.75 MgCl2, 10 EGTA, 10 HEPES, 5 Na2ATP, pH 7.2, adjusted to 315 mOsm with sucrose.
After establishing the whole-cell configuration, cells were held at −80 mV throughout the experiment. A current-voltage (I-V) protocol stepping from −100 to +20 mV for 1 second was applied to measure Kv7.2/Kv7.3 currents, each step was followed by a 200 ms pulse to 0 mV to measure the tail currents. From the I-V protocol a Boltzmann fit was applied to generate activation curves. Data were sampled at 25 kHz and filtered at 5 kHz (Bessel). Data were produced using multihole QChips. The I-V protocol was applied several times to establish the response in control conditions (typically 0.3% DMSO) and in the presence of the test compound.
Data were reviewed in Sophion Analyser version 6.5.2 (Sophion Bioscience) for recording quality and filters were applied to remove any failed wells. Leak subtraction was applied to all recordings. Data filters for multihole QChips were typically: seal resistance>4 MΩ, capacitance >20 pF, baseline VHalf between 0 to −40 mV, baseline holding current between −2 to 2 nA, baseline steady state current at 20 mV >4 nA unless otherwise stated.
(§1) Analysis of Data for Assessment of Potency
(§2) 10 concentrations of test compounds were applied to individual wells in quadruplicate to assess potency as a 1 in 3 dilution series from the maximal concentration of 30 μM. The average shift in the voltage for half activation (Vhalf) for each concentration was used to generate concentration-response curves fitted with a 4-parameter logistic model to estimate the EC50 from the point of inflection of the curve and the maximal shift in the Vhalf from the top of the curve.
(§3) The lower the EC50 value, the higher the potency of the analyzed compound. The selectivity criteria is assigned on the basis of the maximal shift in the Vhalf at 30 μM. […] In Table 3, ND means that selectivity was not determined.

[2] = target: T2, heteromeric KV7.3/KV7.5 channel (KCNQ3, KCNQ5) (Homo sapiens, UniProt O43525+Q9NR82); experiment: Automated patch-clamp counter-screening against KV7.3/KV7.5 channel; conditions: HEK293 cells expressing Kv7.3/KV7.5; class by maximal shift in the Vhalf at 30 μM
T2 construct: host or cells: HEK293
Procedure: Assessment of in vitro potency against KV7.3/KV7.5 channels
Counter-screening was also carried out against the heteromeric KV7.3/KV7.5 channel (KCNQ3, Uniprot ID 043525; KCNQ5, Uniprot ID Q9NR82). The cell line used was a stably transfected HEK293 cell line with constitutive Kv7.3 expression and tetracycline inducible KV7.5 expression supplied by Charles River Laboratories.
Cells were maintained in the following culture media: • DMEM/F-12 with GlutaMAX™ (Life Technologies 31331-028), • 10% Tet Systems FCS (Clonetech 631106), • 500 μg/ml Geneticin™ selective antibiotic (G418, Invitrogen 1013-027), • 5 μg/ml Blasticidin S HCl (InvivoGen ant-bl-5), and • 100 μg/ml Zeocin (InvivoGen: ant-zn-5).
(§4) Cell maintenance, preparation, recording conditions and voltage protocols were all identical to those above.
as §1, §2, §3

[3] = target: T3, homomeric KV7.4 channel (KCNQ4) (Homo sapiens, UniProt P56696); experiment: Automated patch-clamp (Qube) counter-screening assay against KV7.4 channel; conditions: CHO-K1 cells expressing KV7.4; class by maximal shift in the Vhalf at 30 μM
T3 construct: host or cells: CHO-K1
Text: Assessment of In Vitro Potency Against KV7.4 Channels
A counter-screening assay was also developed on the Qube against the homomeric KV7.4 channel (KCNQ4, Uniprot ID P56696). The cell line used was a stably transfected CHO-K1 with constitutive KV7.4 expression supplied by Charles River Laboratories.
CHO-K1 cells stably expressing KV7.4 channels were maintained in the following culture media: • Hams F-12 with GlutaMAX™ (Life Technologies 31765027), • 10% Fetal clone 2 serum (Perbio Science SH30066.03), and • 250 μg/ml Geneticin™ selective antibiotic (G418, Invitrogen 1013-027).
as §4, §1, §2, §3

SMILES | pEC50 [1] | Kv7.2/7.3 ΔV1/2 [1] | Kv7.3/7.5 selectivity criteria [2] | Kv7.4 selectivity criteria [3]
O=C(NCc1ccnc(OCc2ccccc2)c1)NCC(O)C1(C(F)(F)F)CC1 (racemic) [Compound 5, (±)-1-((2-(Benzyloxy)pyridin-4-yl)methyl)-3-(2-hydroxy-2-(1-(trifluoromethyl)cyclopropyl)ethyl)urea] | 5.62 | 21.49 mV | A (Selective compounds showed Kv7.4 and/or Kv7.3/7.5 ΔV1/2 equal to or lower than 15 mV (letter A in table 3)) | A (Selective compounds showed Kv7.4 and/or Kv7.3/7.5 ΔV1/2 equal to or lower than 15 mV (letter A in table 3))
O=C(NCc1ccnc(OCc2ccccc2)c1)Nc1cccc(F)c1 [Compound 1, 1-((2-(Benzyloxy)pyridin-4-yl)methyl)-3-(3-fluorophenyl)urea] | 6.22 | 30.51 mV | B (Non-selective compounds showed Kv7.4 and/or Kv7.3/7.5 ΔV1/2 higher than 15 mV (letter B in table 3)) | B (Non-selective compounds showed Kv7.4 and/or Kv7.3/7.5 ΔV1/2 higher than 15 mV (letter B in table 3))
O=C(NCc1cccc(F)c1)NCc1ccnc(OCc2ccccc2)c1 [Compound 2, 1-((2-(Benzyloxy)pyridin-4-yl)methyl)-3-(3-fluorobenzyl)urea] | 6.02 | 16.51 mV | A (Selective compounds showed Kv7.4 and/or Kv7.3/7.5 ΔV1/2 equal to or lower than 15 mV (letter A in table 3)) | A (Selective compounds showed Kv7.4 and/or Kv7.3/7.5 ΔV1/2 equal to or lower than 15 mV (letter A in table 3))
O=C(NCCC1(C(F)(F)F)CC1)NCc1ccnc(OCc2ccccc2)c1 [Compound 3, 1-((2-(Benzyloxy)pyridin-4-yl)methyl)-3-(2-(1-(trifluoromethyl)cyclopropyl)ethyl)urea] | 6.33 | 25.42 mV | A (Selective compounds showed Kv7.4 and/or Kv7.3/7.5 ΔV1/2 equal to or lower than 15 mV (letter A in table 3)) | A (Selective compounds showed Kv7.4 and/or Kv7.3/7.5 ΔV1/2 equal to or lower than 15 mV (letter A in table 3))
CC(C)(C)[C@H](O)CNC(=O)NCc1ccnc(OCc2ccccc2)c1 [Compound 4, (S)-1-((2-(Benzyloxy)pyridin-4-yl)methyl)-3-(2-hydroxy-3,3-dimethylbutyl)urea] | 5.77 | 27.28 mV | B (Non-selective compounds showed Kv7.4 and/or Kv7.3/7.5 ΔV1/2 higher than 15 mV (letter B in table 3)) | A (Selective compounds showed Kv7.4 and/or Kv7.3/7.5 ΔV1/2 equal to or lower than 15 mV (letter A in table 3))
CN(Cc1ccnc(OCC(F)(F)F)c1)C(=O)NCCC1(C(F)(F)F)CC1 [Compound 7, 1-Methyl-1-((2-(2,2,2-trifluoroethoxy)pyridin-4-yl)methyl)-3-(2-(1-(trifluoromethyl)cyclopropyl)ethyl)urea] | 5.29 | 22.31 mV | A (Selective compounds showed Kv7.4 and/or Kv7.3/7.5 ΔV1/2 equal to or lower than 15 mV (letter A in table 3)) | A (Selective compounds showed Kv7.4 and/or Kv7.3/7.5 ΔV1/2 equal to or lower than 15 mV (letter A in table 3))
O=C(NCCC1(C(F)(F)F)CC1)NCc1cc(OCc2ccccc2)ncn1 [Compound 11, 1-((6-(Benzyloxy)pyrimidin-4-yl)methyl)-3-(2-(1-(trifluoromethyl)cyclopropyl)ethyl)urea] | 5.74 | 27.09 mV | B (Non-selective compounds showed Kv7.4 and/or Kv7.3/7.5 ΔV1/2 higher than 15 mV (letter B in table 3)) | A (Selective compounds showed Kv7.4 and/or Kv7.3/7.5 ΔV1/2 equal to or lower than 15 mV (letter A in table 3))

The next lines start with results.

pEC50 [1] | Kv7.2/7.3 ΔV1/2 [1] | SMILES | Kv7.3/7.5 selectivity criteria [2] | Kv7.4 selectivity criteria [3]
6.51 | 14.75 mV | O=C(NCc1ccnc(OCC(F)(F)F)c1)NC1CCc2ccc(F)cc21 (racemic) [Compound 81, (±)-1-(6-Fluoro-2,3-dihydro-1H-inden-1-yl)-3-((2-(2,2,2-trifluoroethoxy)pyridin-4-yl)methyl)urea] | A (Selective compounds showed Kv7.4 and/or Kv7.3/7.5 ΔV1/2 equal to or lower than 15 mV (letter A in table 3)) | A (Selective compounds showed Kv7.4 and/or Kv7.3/7.5 ΔV1/2 equal to or lower than 15 mV (letter A in table 3))
5.12 | 13.2 mV | O=C(NCCC1(C(F)(F)F)CC1)NCc1ccnc(OCC2CCOCC2)c1 [Compound 12, 1-((2-((Tetrahydro-2H-pyran-4-yl)methoxy)pyridin-4-yl)methyl)-3-(2-(1-(trifluoromethyl)cyclopropyl)ethyl)urea] | A (Selective compounds showed Kv7.4 and/or Kv7.3/7.5 ΔV1/2 equal to or lower than 15 mV (letter A in table 3)) | A (Selective compounds showed Kv7.4 and/or Kv7.3/7.5 ΔV1/2 equal to or lower than 15 mV (letter A in table 3))
5.35 | 22.29 mV | O=C(NCCC1(C(F)(F)F)CC1)NCc1ccnc(OCc2ncco2)c1 [Compound 13, 1-((2-(Oxazol-2-ylmethoxy)pyridin-4-yl)methyl)-3-(2-(1-(trifluoromethyl)cyclopropyl)ethyl)urea] | A (Selective compounds showed Kv7.4 and/or Kv7.3/7.5 ΔV1/2 equal to or lower than 15 mV (letter A in table 3)) | A (Selective compounds showed Kv7.4 and/or Kv7.3/7.5 ΔV1/2 equal to or lower than 15 mV (letter A in table 3))
6.41 | 26.52 mV | O=C(NCCC1(C(F)(F)F)CC1)NCc1ccnc(OCc2ccc(F)cc2)c1 [Compound 14, 1-((2-((4-Fluorobenzyl)oxy)pyridin-4-yl)methyl)-3-(2-(1-(trifluoromethyl)cyclopropyl)ethyl)urea] | A (Selective compounds showed Kv7.4 and/or Kv7.3/7.5 ΔV1/2 equal to or lower than 15 mV (letter A in table 3)) | B (Non-selective compounds showed Kv7.4 and/or Kv7.3/7.5 ΔV1/2 higher than 15 mV (letter B in table 3))
5.69 | 25.72 mV | O=C(NCCC1(C(F)(F)F)CC1)NCc1ccnc(OCC2CC(F)(F)C2)c1 [Compound 15, 1-((2-((3,3-Difluorocyclobutyl)methoxy)pyridin-4-yl)methyl)-3-(2-(1-(trifluoromethyl)cyclopropyl)ethyl)urea] | A (Selective compounds showed Kv7.4 and/or Kv7.3/7.5 ΔV1/2 equal to or lower than 15 mV (letter A in table 3)) | A (Selective compounds showed Kv7.4 and/or Kv7.3/7.5 ΔV1/2 equal to or lower than 15 mV (letter A in table 3))
